Test results taken from patent publication US20240115654A1, “INTRAVENOUS ADMINISTRATION OF ENGINEERED ANTIMICROBIAL AMPHIPHILIC PEPTIDES” (priority 2021, published 2024).
Like-named read-outs stand apart in the source and are kept apart here. Peptide text beside a SMILES is read from it.

Text: All subjects who met eligibility criteria were confined to the clinical research unit from […] through Day 3. At admission, physical examination, vital signs, 12 lead ECG and weight were obtained, medical and medication history were updated if necessary, safety blood tests (hematology and chemistry), urinalysis, urine drug screen and an alcohol breath test were repeated and a urine pregnancy test was done for women of childbearing potential.
At each dose level, there were 2 sentinel subjects, (1 active, 1 placebo), who were dosed at least 48 hours in advance of the other subjects in their respective group. Following review of safety data, including physical examination, vital signs, and review of adverse events from the first 2 subjects, enrolment in the cohort continued.
A 12-lead ECG was performed on Day 1, within 60 minutes of infusion start (in triplicate), mid-way through the infusion, at the completion of the infusion, 30 minutes after completion of the infusion and at various timepoints following the end of the infusion.
Vital signs were recorded within 60 minutes pre-dose, at the mid-point of the infusion and post dose vitals were assessed at completion of the infusion, 0.5, 1, 2, 3, 4, 6, 9, 12, 24 and 48 hours post dose, after at least 3 minutes of rest in supine position.
Subjects returned to the study center 7 days after dosing, for the termination visit. A full physical examination, vital signs and weight were obtained, concomitant medications were updated if necessary, safety blood specimens (haematology and chemistry, PT and aPTT) and urine were collected for urinalysis and urine drug screening. A serum pregnancy test was done for women of childbearing potential and a 12-lead ECG was performed.
In this study dose limiting toxicity (DLT) was defined as any drug related ≥Grade 3 AEs occurring despite optimal therapeutic interventions (which included but were not limited to allergic/hypersensitivity reactions, dermatological reactions/infusion site reactions, haematological toxicities such as neutropenia, thrombocytopenia and anaemia and clinical chemistry abnormalities) experienced up to Day 7 (Termination Visit).
(§1) All subjects who received any amount of study drug were included in the safety analysis (Safety population).
The study was a double blinded, randomized, placebo-controlled study. The placebo administered was 0.9% sodium chloride.
On Day 1 (day of dosing), subjects were randomly assigned either peptide IV or Placebo IV. At each dose level, there were 2 sentinel subjects, (1 active, 1 placebo), who were dosed at least 48 hours in advance of the other subjects in their respective group. Following review of safety data, including physical examination, vital signs, and review of adverse events from the first 2 subjects, enrolment in the cohort continued. All subjects who met eligibility criteria were confined to the clinical research unit from Day −2 through Day 3. At admission, physical examination, vital signs, 12 lead ECG and weight were obtained, medical and medication history were updated if necessary, safety blood tests (hematology and chemistry), urinalysis, urine drug screen and an alcohol breath test were repeated and a urine pregnancy test was done for women of childbearing potential.
as §1

[1] = Cohort 4: 0.5 mg/kg IV 2-hr infusion (N = 6)
[2] = Cohort 4: 0.5 mg/kg IV 2 hr infusion, subject 001-S086
[3] = Cohort 4: 0.5 mg/kg IV 2 hr infusion, subject 001-S093
[4] = Cohort 4: 0.5 mg/kg IV 2 hr infusion, subject 001-S094
[5] = Cohort 5 1 mg/kg IV 4-hr infusion, participant 001-S119
[6] = Cohort 5 1 mg/kg IV 4-hr infusion, participant 001-S127
[7] = Cohort 5: 1 mg/kg IV 4-hr infusion (N = 6)

CC(C)[C@H](NC(=O)[C@H](Cc1c[nH]c2ccccc12)NC(=O)[C@H](CCCNC(=N)N)NC(=O)[C@H](CCCNC(=N)N)NC(=O)[C@@H](NC(=O)[C@@H](NC(=O)[C@H](CCCNC(=N)N)NC(=O)[C@@H](NC(=O)[C@@H](NC(=O)[C@H](CCCNC(=N)N)NC(=O)[C@H](CCCNC(=N)N)NC(=O)[C@H](Cc1c[nH]c2ccccc12)NC(=O)[C@@H](NC(=O)[C@H](CCCNC(=N)N)NC(=O)[C@H](CCCNC(=N)N)NC(=O)[C@@H](NC(=O)[C@H](CCCNC(=N)N)NC(=O)[C@H](CCCNC(=N)N)NC(=O)[C@@H](NC(=O)[C@H](Cc1c[nH]c2ccccc12)NC(=O)[C@H](CCCNC(=N)N)NC(=O)[C@@H](N)CCCNC(=N)N)C(C)C)C(C)C)C(C)C)C(C)C)C(C)C)C(C)C)C(C)C)C(=O)N[C@@H](CCCNC(=N)N)C(=O)N[C@@H](CCCNC(=N)N)C(N)=O [SEQ ID NO: 1] (H-RRWVRRVRRVWRRVVRVVRRWVRR-NH2)
Treatment-related TEAE: Skin and Subcutaneous Tissue Disorders, participants n (%) [1]: 0 | Treatment-related TEAE: Thrombocytopenia, participants n (%) [1]: 0 | Treatment-related TEAE: Vascular Disorders, participants n (%) [1]: 0 | Treatment-related TEAE: Vessel puncture site erythema, participants n (%) [1]: 0 | Treatment-related TEAE: Vessel puncture site pain, occurrences m [1]: 1 | Treatment-related TEAE: Vessel puncture site pain, participants n (%) [1]: 1 (16.7%) | Treatment-related TEAE: Vomiting, participants n (%) [1]: 0 | Infusion related reaction: End Date/Time [2]: End of Study | Infusion related reaction: Severity Grade [2]: Grade 1 | Infusion related reaction: Start Date/Time [2]: Day 1/1 hour | Infusion related reaction: Event (Cohort 4: 0.5 mg/kg IV 2 hr infusion, subject 001-S086, 0.5 mg/kg): Myalgia | Infusion related reaction: End Date/Time [3]: Day 1/12 hours | Infusion related reaction: Event [3]: Discomfort at right | Infusion related reaction: Severity Grade [3]: Grade 1 | Infusion related reaction: End Date/Time [4]: Day 1/2 hours | Infusion related reaction: Event [4]: Right arm cannula | Infusion related reaction: Severity Grade [4]: Grade 1 | Severity of event: Localized IRR, Right arm (Cohort 5 1 mg/kg IV 4-hr infusion, participant 001-S113): Grade 1 | Severity of event: Localized IRR, Left arm (Cohort 5 1 mg/kg IV 4-hr infusion, participant 001-S117): Grade 1 | Severity of event: Lightheadedness [5]: Grade 1 | Severity of event: Localized IRR, Left arm [5]: Grade 1 | Severity of event: Pain at dosing site, Left arm (Cohort 5 1 mg/kg IV 4-hr infusion, participant 001-S120): Grade 1 | Severity of event: Localized IRR, Left arm (Cohort 5 1 mg/kg IV 4-hr infusion, participant 001-S122): Grade 1 | Severity of event: IRR, Right arm; pain in region of right biceps muscle [6]: Grade 1 | Severity of event: Right-sided headache [6]: Grade 1 | IRRs, events (Cohort 5, 1 mg/kg over 4 hours in 250 mL, 6 participants, all Grade 1): 9 | Number of Participants Reporting at least: Onc TEAE Leading to Study Withdrawal, n (%) [7]: 0 | Number of Participants Reporting at least: One Dose-Limiting Toxicity, n (%) [7]: 0 | Number of Participants Reporting at least: One Related TEAE, n (%) [7]: 6 (100%) | Number of Participants Reporting at least: One Serious TEAE, n (%) [7]: 0 | Number of Participants Reporting at least: One TEAE Leading to Study Drug Discontinuation, n (%) [7]: 0 | Number of Participants Reporting at least: One TEAE with Common Terminology Criteria for Adverse Events (CTCAE) Toxicity ≥ Grade 3, n (%) [7]: 0 | Number of Participants Reporting at least: One TEAE, n (%) [7]: 6 (100%) | One Related TEAE, m [7]: 11 | One TEAE, m [7]: 20 | Participants With At Least 1 TEAE, n (%) [7]: 6 (100%) | Participants With At Least 1 TEAE, occurrences m [7]: 20 | Participants With At Least 1 Treatment-Related TEAE, n (%) [7]: 6 (100%) | Participants With At Least 1 Treatment-Related TEAE, occurrences m [7]: 11 | TEAE Severity Grade 1, m [7]: 19 | TEAE Severity Grade 1, n (%) [7]: 6 (100%) | TEAE Severity Grade 2, m [7]: 1 | TEAE Severity Grade 2, n (%) [7]: 1 (16.7%) | TEAE by system organ class: Blood and Lymphatic System Disorders, participants n (%) [7]: 0 | TEAE by system organ class: Gastrointestinal Disorders, occurrences m [7]: 1 | TEAE by system organ class: Gastrointestinal Disorders, participants n (%) [7]: 1 (16.7%) | TEAE by system organ class: General Disorders and Administration Site Conditions, occurrences m [7]: 9 | TEAE by system organ class: General Disorders and Administration Site Conditions, participants n (%) [7]: 6 (100%) | TEAE by system organ class: Infections and Infestations, participants n (%) [7]: 0 | TEAE by system organ class: Injury, Poisoning, and Procedural Complications, occurrences m [7]: 5 | TEAE by system organ class: Injury, Poisoning, and Procedural Complications, participants n (%) [7]: 4 (66.7%) | TEAE by system organ class: Musculoskeletal and Connective Tissue Disorders, occurrences m [7]: 1 | TEAE by system organ class: Musculoskeletal and Connective Tissue Disorders, participants n (%) [7]: 1 (16.7%) | TEAE by system organ class: Nervous System Disorders, occurrences m [7]: 2 | TEAE by system organ class: Nervous System Disorders, participants n (%) [7]: 2 (33.3%) | TEAE by system organ class: Respiratory, Thoracic, and Mediastinal disorders, participants n (%) [7]: 0 | TEAE by system organ class: Skin and Subcutaneous Tissue Disorders, occurrences m [7]: 2 | TEAE by system organ class: Skin and Subcutaneous Tissue Disorders, participants n (%) [7]: 2 (33.3%) | TEAE by system organ class: Vascular Disorders, participants n (%) [7]: 0 | TEAE severity Grade 1, occurrences m [7]: 19 | TEAE severity Grade 1, participants n (%) [7]: 6 (100%) | TEAE severity Grade 2, occurrences m [7]: 1 | TEAE severity Grade 2, participants n (%) [7]: 1 (16.7%) | TEAE severity Grade 3, participants n (%) [7]: 0 | TEAE severity Grade 4, participants n (%) [7]: 0 | TEAE severity Grade 5, participants n (%) [7]: 0 | Treatment-related TEAE: Abdominal distension, participants n (%) [7]: 0
